Laboratory results taken from patent US20260241046A1, “PROSTATE-SPECIFIC MEMBRANE ANTIGEN RECEPTOR-TARGETING RADIOPHARMACEUTICALS AND USES THEREOF” (Nuclidium AG, priority 2024, published 2026).
Where “and” joins values, the source holds several entries; their conditions need not be identical. Identical values can stand only once.

What was measured:
[1] = Lipophilicity log D (pH 7.4), shake-flask method; type: physicochemical; details: 1-octanol / PBS pH 7.4
Experimental: The lipophilic/hydrophilic character of [^61Cu]Cu-NODAGA-PSMA I&T was assessed by the determination of the distribution coefficient (D), expressed as log D at physiological pH (log D (pH 7.4)), between an aqueous and an organic phase following the “shake-flask” method. [^61Cu]Cu-NODAGA-PSMA I&T (1 μM) was added to a 50:50 pre-saturated mixture solution of 1-octanol and phosphate-buffered saline (PBS pH 7.4). The mixture was vortexed for 30 min and then centrifuged at 3000 rpm to achieve phase separation. Aliquots from each phase were collected and measured in a gamma counter. The distribution coefficient was calculated as the average logarithmic values of the ratio between the radioactivity in the organic and the PBS phase.

PSMA-expressing tissues = system: PSMA-expressing tissues
Experimental: The specificity of [^61Cu]Cu-NODAGA-PSMA I&T for PSMA-expressing tissues was evaluated in LNCaP xenograft mice through a blocking study. The mice were first administered with 1.3 μmol (300 μg) of 2-PMPA as a blocking agent, followed by an intravenous injection of 4-8 MBq ([…]) [^61Cu]Cu-NODAGA-PSMA I&T diluted to 100 μL in saline in the tail vein. The animals (n=4) were sacrificed 1 hour post-injection, and the organs were collected, weighed and counted in a gamma counter as already described. The results are expressed as a percentage of injected activity per gram (% IA/g) as presented in Table 27 and are compared with the results obtained from biodistribution studies.
PET/CT imaging was also performed at 1 hour post-injection.

[2] = Shelf life at room temperature by reverse-phase radio-HPLC; type: physicochemical
Experimental: The shelf life of [^61Cu]Cu-NODAGA-PSMA I&T was assessed at room temperature in the reaction solution and the injection formulation at various time points after EoS. At pre-defined time points (up to 12 h), an aliquot was analyzed by radio-HPLC. The radiochemical purity was determined by analytical reverse-phase radio-HPLC using a Macherey Nagel Nucleodur ISIS C18 (5 μm, 250×4.6 mm) column. The results indicated a stability of over 95% up to 12 hours (Table 22).

[3] = Dosimetry calculations (OLINDA/EXM 1.0, extrapolated human dose)
Source text: The data from the pharmacokinetic studies (Table 26) was decay-corrected using the half-life of ^61Cu to extrapolate the human dose. Since there were no measurements of the radioactivity accumulation in red marrow, this was estimated assuming a linear relationship between the blood and the red marrow residence times. The proportionality factor used was the ratio between the red marrow mass and human blood mass. The residence time (RT) for the stomach was approximated to be equal to the RT of the stomach wall since the animals were subjected to fasting before the biodistribution experiments. The heart was emptied from blood before measurements, and it was assumed that the total measured heart uptake was associated with the heart wall.
OLINDA/EXM 1.0 was used to integrate the fitted time-activity curves and to estimate the organ and effective doses using standard human whole-body adult female and male phantom models. Since the salivary glands are PSMA-positive and the organ is not included in the phantom, the dose absorbed was calculated separately, assuming that the weight of the human salivary gland is 30 g.

## O=C([O-])CN1CCN(CC(=O)[O-])CCN([C@H](CCC(=O)N[C@H](Cc2ccc(O)c(I)c2)C(=O)N[C@H](Cc2ccccc2)C(=O)N[C@H](CCCCNC(=O)CCCCCCC(=O)NCCCC[C@H](NC(=O)N[C@@H](CCC(=O)O)C(=O)O)C(=O)O)C(=O)O)C(=O)O)CC1.[61Cu+2] [[^61Cu]Cu-NODAGA-PSMA I&T]
[1]
  log D (pH 7.4): −2.95±0.08
PSMA-expressing tissues; 1 hour post-injection
  Biodistribution with 2-PMPA blocking, Adrenal: 0.96±0.87 % IA/g
  Biodistribution with 2-PMPA blocking, Blood: 0.44 ± 0.50 % IA/g
  Biodistribution with 2-PMPA blocking, Bone: 0.39 ± 0.24 % IA/g
  Biodistribution with 2-PMPA blocking, Heart: 0.34 ± 0.27 % IA/g
  Biodistribution with 2-PMPA blocking, Intestine: 0.87 ± 0.50 % IA/g
  Biodistribution with 2-PMPA blocking, Kidneys: 4.59±0.50 % IA/g
  Biodistribution with 2-PMPA blocking, LNCaP-tumor: 0.68±0.54 % IA/g
  Biodistribution with 2-PMPA blocking, Liver: 1.29 ± 0.53 % IA/g
  Biodistribution with 2-PMPA blocking, Lung: 0.67 ± 0.40 % IA/g
  Biodistribution with 2-PMPA blocking, Muscle: 0.32 ± 0.36 % IA/g
  Biodistribution with 2-PMPA blocking, Pancreas: 0.29 ± 0.19 % IA/g
  Biodistribution with 2-PMPA blocking, Salivary glands: 0.51 ± 0.30 % IA/g
  Biodistribution with 2-PMPA blocking, Spleen: 0.33±0.16 % IA/g
  Biodistribution with 2-PMPA blocking, Stomach: 0.62 ± 0.28 % IA/g
PSMA-expressing tissues; LNCaP xenograft mice
  in vivo stability (transchelation): stable in vivo, with limited transchelation phenomena
[2]; Injection formulation
  RCP by HPLC: 99.0 ± 0.2%
  RCP up to 3 h (n = 3): 99.5 ± 0.2%
  RCP up to 6 h (n = 3): 99.0 ± 0.5%
  RCP up to 9 h (n = 3): 99.1 ± 0.5%
  RCP up to 12 h (n = 2): 99.7 ± 0.41%
[2]; Reaction solution
  RCP by HPLC: 99.4 ± 0.4%
  RCP up to 3 h (n = 3): 99.6 ± 0.2%
  RCP up to 6 h (n = 3): 99.5 ± 0.7%
  RCP up to 9 h (n = 3): 99.1 ± 0.8%
  RCP up to 12 h (n = 2): 99.7 ± 0.1%
[2]; up to 12 hours
  stability: over 95%
[3]; Female
  Effective Dose: 0.0095 mSv/MBq and 9.54E−03 mSv/MBq
  Total absorbed dose, Adrenals: 9.86E−02 mGy/MBq
  Total absorbed dose, Brain: 5.59E−05 mGy/MBq
  Total absorbed dose, Breasts: 1.23E−03 mGy/MBq
  Total absorbed dose, Gallbladder Wall: 1.37E−02 mGy/MBq
  Total absorbed dose, Heart Wall: 5.03E−03 mGy/MBq
  Total absorbed dose, Kidneys: 1.00E+00 mGy/MBq
  Total absorbed dose, LLI Wall: 3.24E−03 mGy/MBq
  Total absorbed dose, Liver: 1.83E−02 mGy/MBq
  Total absorbed dose, Lungs: 4.86E−03 mGy/MBq
  Total absorbed dose, Muscle: 4.03E−03 mGy/MBq
  Total absorbed dose, Osteogenic Cells: 3.93E−03 mGy/MBq
  Total absorbed dose, Ovaries: 4.76E−03 mGy/MBq
  Total absorbed dose, Pancreas: 3.18E−02 mGy/MBq
  Total absorbed dose, Red Marrow: 6.94E−03 mGy/MBq
  Total absorbed dose, Skin: 1.82E−03 mGy/MBq
  Total absorbed dose, Small Intestine: 2.78E−02 mGy/MBq
  Total absorbed dose, Spleen: 5.65E−02 mGy/MBq
  Total absorbed dose, Stomach Wall: 1.08E−02 mGy/MBq
  Total absorbed dose, Thymus: 1.11E−03 mGy/MBq
  Total absorbed dose, Thyroid: 2.72E−04 mGy/MBq
  Total absorbed dose, Total Body: 9.46E−03 mGy/MBq
  Total absorbed dose, ULI Wall: 9.78E−03 mGy/MBq
  Total absorbed dose, Urinary Bladder Wall: 1.60E−03 mGy/MBq
  Total absorbed dose, Uterus: 3.94E−03 mGy/MBq
[3]; Male
  Effective Dose: 0.0142 mSv/MBq and 1.42E−02 mSv/MBq
  Total absorbed dose, Adrenals: 8.39E−02 mGy/MBq
  Total absorbed dose, Brain: 6.18E−05 mGy/MBq
  Total absorbed dose, Gallbladder Wall: 2.30E−02 mGy/MBq
  Total absorbed dose, Heart Wall: 6.94E−03 mGy/MBq
  Total absorbed dose, Kidneys: 1.74E+00 mGy/MBq
  Total absorbed dose, LLI Wall: 4.64E−03 mGy/MBq
  Total absorbed dose, Liver: 2.51E−02 mGy/MBq
  Total absorbed dose, Lungs: 6.11E−03 mGy/MBq
  Total absorbed dose, Muscle: 6.00E−03 mGy/MBq
  Total absorbed dose, Osteogenic Cells: 5.31E−03 mGy/MBq
  Total absorbed dose, Pancreas: 4.83E−02 mGy/MBq
  Total absorbed dose, Red Marrow: 1.11E−02 mGy/MBq
  Total absorbed dose, Skin: 2.90E−03 mGy/MBq
  Total absorbed dose, Small Intestine: 3.79E−02 mGy/MBq
  Total absorbed dose, Spleen: 7.37E−02 mGy/MBq
  Total absorbed dose, Stomach Wall: 1.71E−02 mGy/MBq
  Total absorbed dose, Testes: 5.39E−04 mGy/MBq
  Total absorbed dose, Thymus: 1.67E−03 mGy/MBq
  Total absorbed dose, Thyroid: 4.99E−04 mGy/MBq
  Total absorbed dose, Total Body: 1.38E−02 mGy/MBq
  Total absorbed dose, ULI Wall: 1.43E−02 mGy/MBq
  Total absorbed dose, Urinary Bladder Wall: 2.06E−03 mGy/MBq
[3]; after injecting 100-150 MBq
  absorbed dose in the kidneys: 0.17-0.26 Gy
